Source: patent US5622839A (ZymoGenetics, Inc., priority 1995, dated 1997)
Where two headings read alike, the source gives them in different places.

Assays:
[1] = molecular target: T1, human calcitonin receptor (Homo sapiens, UniProt P30988); assay: cAMP response by radioimmunoassay (scintillation proximity assay) in Hollex1 and Hollex2; format: cell-based; settings: 10 min; for EC50: read-out: ED50 (cAMP)
T1 construct: Hollex encoded a protein of 474 amino acids; expressed in transfected cells; host or cells: BHK 570 / BHK/KZ10-20-48 (baby hamster kidney) stably transfected with pHollex
T1 sequence (P30988 25-474): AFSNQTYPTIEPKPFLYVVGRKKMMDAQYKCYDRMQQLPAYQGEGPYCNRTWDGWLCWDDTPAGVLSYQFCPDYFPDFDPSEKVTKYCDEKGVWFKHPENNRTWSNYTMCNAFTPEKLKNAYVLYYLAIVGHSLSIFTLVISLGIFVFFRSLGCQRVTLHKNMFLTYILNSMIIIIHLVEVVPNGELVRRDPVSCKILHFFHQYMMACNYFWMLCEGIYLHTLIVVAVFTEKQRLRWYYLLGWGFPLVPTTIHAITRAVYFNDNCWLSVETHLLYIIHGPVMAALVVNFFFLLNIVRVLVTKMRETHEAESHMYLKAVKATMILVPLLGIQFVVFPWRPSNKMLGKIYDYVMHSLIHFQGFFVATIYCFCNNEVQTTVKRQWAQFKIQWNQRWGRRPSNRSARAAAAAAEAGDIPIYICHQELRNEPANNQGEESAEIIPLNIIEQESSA
Description: The cAMP response of the transfectant clones Hollex1 and Hollex2 to calcitonin and forskolin was also assayed by radioimmunoassay using the cAMP [^125 I] scintillation proximity assay system (Amersham) using the manufacturer's directions. Briefly, either 1×10^5 cells per well or 3×10^5 cells per well were plated into the wells of a 24-well culture dish and grown for 2 days (1×10^5 cells per well) or overnight (3×10^5 cells per well) in selection medium. Calcitonin and forskolin were prepared in DMEM, 10% fetal calf serum, 10 μM IBMX at 0.0001-1000 nM and 25 μM, respectively.
The growth medium was replaced with 200 μl/well of agonist (either calcitonin or forskolin). The cells were incubated with the agonists for 10 minutes at 37° C. in 5% CO2. Following incubation, 800 μl of boiling water was added to each well. After 15 minutes the supernatants were collected and diluted 1:5 or 1:40 in acetate buffer (cAMP [^125 I] Scintillation Proximity Assay System (Amersham)). Samples were acetylated using triethylamine and acetic anhydride according to the protocol provided by the manufacturer.
A 100 μl aliquot of each acetylated sample was combined with 75 μl of ^125 I-cAMP, 75 μl anti-succinyl cAMP antisera and 75 μl of donkey anti-rabbit IgG coupled SPA beads (all assay solutions provided in the cAMP [^125 I] Scintillation Proximity Assay System (Amersham)) in a well of an Dynatech MICROLITE 2 plate. The trays were sealed and incubated overnight with continuous shaking on a rotary platform shaker at 200 rpm. The samples were counted in a Packard Top Count Microplate Scintillation Counter (Packard Instrument Co., Meriden, Conn.). A standard curve of 2-128 fmol acetylated cAMP was also run. Total ^125 I-cAMP bound and nonspecific binding were also determined.

T47D cells = molecular target: T2, T47D cells (Homo sapiens, UniProt P30988); assay: Calcitonin competition binding assay with T47D cells (positive control); settings: T47D (pos. control)
T2 construct: T47D cells were used as a positive control; endogenous in cells; host or cells: T47D human breast carcinoma cells
T2 sequence (P30988 25-474): T1 sequence (P30988 25-474)
Description: Clones Hollex1 and Hollex2 were tested for receptor-mediated ability to bind calcitonin using a competition assay. T47D cells were used as a positive control and BHK cells transfected with Zem1698 were used as a negative control.
The cells were rinsed in binding medium (500 ml RPMI 1640 (Sigma, St. Louis, Mo.), 1 mg/ml bacitracin (Sigma), and 1 mg/ml BSA (Boehringer Mannheim)) to remove the serum. […] The cells were incubated for 1.5 hours at room temperature, and then rinsed 3 times with PBS to remove unincorporated radioactivity. Five hundred microliters of 0.25N NaOH was added to each well to solubilize the cells. The samples were collected from each well and CPMs were counted on a gamma counter.

[2] = molecular target: T1, human calcitonin receptor; assay: CRE-luciferase induction in BHK/KZ10-20-48 cells transfected with pHollex (Hollex1, Hollex2); format: cell-based; settings: Hollex1 and Hollex2 clones; 4 h at 37° C.; FIG. 3 and FIG. 4
Description: This cell line permits the measurement of luciferase activity, adenylate cyclase activity and intracellular calcium concentrations in response to calcitonin binding to its receptor.
Plasmid KZ10 was transfected into BHK570 cells (available from ATCC as Accession no. CRL 10314) using the calcium phosphate precipitation method essentially as described by Graham and Van de Eb (Virol. 52: 456, 1973, which is incorporated by reference herein). The transfected cells were grown in growth medium (Dulbecco's modified Eagle's medium (DMEM) containing 10% fetal calf serum and 2.0 mm L-glutamine). After a few days in nonselective growth medium, the growth medium was replaced with methotrexate (MTX) selection medium (growth medium containing 250 nM MTX). The cells were then allowed to grow to confluency after which they were trypsinized and plated at limiting dilution into the wells of 96-well plates. […]
Induction was initiated by removing old medium from the wells and adding 100 μl of fresh growth medium and 100 μl of each 2× solution in triplicate sample wells. Uninduced levels were determined in triplicate wells to which 100 μl of DMEM containing 10% fetal calf serum was added. […]
Following induction, the medium was removed, and the wells were washed once with 200 μl/well PBS. […] The fold induction of luciferase for each agonist was calculated as follows: […]

salmon calcitonin was tested, and the EC50 ([1]; Hollex1) was 0.07 nM, the “induction of cAMP” value ([1]; Hollex1, saturating concentrations (10-100 nM)) was 12 fold and the EC50 ([1]; Hollex2) was 0.04 nM. The “induction of cAMP levels” value ([1]; Hollex2, saturating concentrations (10-100 nM)) was 5 fold, the Kd (T47D cells) was 0.6 ± 0.5 nM and the “fold induction of luciferase” value [2] was 5-10 fold.
